Measurements as given in patent US12605359B2, “Proprotein convertase subtilisin/kexin type 9 (PCSK9) inhibitor and pharmaceutical use therefor” (THE KITASATO INSTITUTE, priority 2020, dated 2026).

Assays:
PCSK9 [1] = test: In vitro PCSK9 inhibition test: Western blot of PCSK9/ProPCSK9 in culture medium and cells of HepG2 cells; assay type: cell-based, human; conditions: HepG2, 24 hours; for PCSK9 (in cells) / PCSK9 (in culture medium) / ProPCSK9 (in cells) / Total PCSK9 amount: percentage with respect to total amount of PCSK9 in the control; for total amount of PCSK9, dependence on the concentration added: 1.0 and 10 micro gram/mL; for total amount of PCSK9, dependence on the concentration added / amount of PCSK9 in the culture medium and the cells, as compared with the control: result in words
Experimental: HepG2 cells derived from human liver cancer (5×10^5 cells/mL, 0.25 mL/well) were seeded on a 48-well plate. Subject compounds: 1,11-O-o-methylbenzylidene-7-O-p-cyanobenzoyl-1,7,11-trideacetyl pyripyropene A (PRD125), 7-p-cyanobenzoyl-7-deacetyl pyripyropene A (PRD017), 7-O-p-cyanobenzoyl-1,11-di(O-isobutyryl)-1,7,11-trideacetyl pyripyropene A (PRD056), and comparative compounds: pyripyropene A (PPPA) and a known statin drug, atorvastatin (Atr), were each added to the wells at a predetermined concentration, and the cells were cultured in a serum-free medium at 37° C. for 24 hours. As a control, the cells were treated in wells in the absense of compound under similar conditions. After culturing, the culture medium and the cells were collected. PCSK9 in the culture medium and the cells was detected by Western blotting. Using an image analysis software (ImageLab), band intensity of the detected PCSK9 was quantified. The quantitative value of each band intensity was corrected based on the quantitative value of the band intensity of glyceraldehyde-3-phosphate dehydrogenase (GAPDH) that is a loading control for Western blotting. In the figure, FIG. 1A indicates the results of detecting PCSK9 and ProPCSK9 in the culture medium and the cells with PRD017 or PRD056 added, and FIG. 1B indicates the results of detecting PCSK9 and ProPCSK9 in the culture medium and the cells with PRD125, Atr, or PPPA added. In FIG. 2, FIG. 2A indicates the results with PRD017 added, FIG. 2B indicates the results with PRD056 added, and FIG. 2C indicates the results with PRD125 added, respectively. In FIG. 3, FIG. 3A indicates the results with Atr added, and FIG. 3B indicates the results with PPPA added, respectively. In the figures, the horizontal axis indicates the concentration of the compound (micro gram/mL) added, and the vertical axis indicates the total amount of PCSK9(%), respectively. The total amount of PCSK9 is a percentage with respect to the total amount of PCSK9 in the control. The values in Table 1 are percentages with respect to the total amount of PCSK9 in the control.

PCSK9 [2] = test: In-vivo PCSK9 inhibition test in high-fat-diet-fed mice; design: species or system mice (C57BL/6J); conditions: 10 mg/kg body weight/day in HFD for 8 weeks, versus control group
Experimental: Female and male mice (C57BL/6J) were fed with high-fat diet (HFD) for 4 weeks. The mice were grouped into the control group, the PPPA-administered group and PRD125-administered group (N=20 for males and N=20 for females in each group). The PPPA-administered group and the PRD125-administered group were fed with HFD with each subject compound or a comparative compound added for 8 weeks. The control group was fed only with HFD for 8 weeks. The PPPA was administered at a dose of 50 mg/kg body weight/day, and the PRD125 was administered at a dose of 10 mg/kg body weight/day, respectively. After the completion of the administration period, the blood was collected and the liver was extracted under anesthesia, from the mice of each group. The amount of LDL-cholesterol and the amount of PCSK9 in the blood, and the amount of total cholesterol, the amount of cholesteryl ester, and the amount of triglyceride in the liver were measured. The averages and the standard deviations of the measured values in each group were calculated. Further, the p values for the values of the PPPA-administered group and the PRD125-administered group with respect to the value of the control group were calculated by the student t-test. […]

Row | Compound | PCSK9 (in cells) (PCSK9 [1]; 1.0 micro gram/mL) [%] | PCSK9 (in culture medium) (PCSK9 [1]; 1.0 micro gram/mL) [%] | ProPCSK9 (in cells) (PCSK9 [1]; 1.0 micro gram/mL) [%] | Total PCSK9 amount (PCSK9 [1]; 1.0 micro gram/mL) [%] | amount of PCSK9 in the culture medium with respect to the amount of PCSK9 in the culture medium of the control (PCSK9 [1]; 10 micro gram/mL) [%] | amount of ProPCSK9 in the cells with respect to the amount of ProPCSK9 in the cells of the control (PCSK9 [1]; 10 micro gram/mL) [%] | PCSK9 (in cells) (PCSK9 [1]; 10 micro gram/mL) [%] | PCSK9 (in culture medium) (PCSK9 [1]; 10 micro gram/mL) [%] | ProPCSK9 (in cells) (PCSK9 [1]; 10 micro gram/mL) [%] | Total PCSK9 amount (PCSK9 [1]; 10 micro gram/mL) [%] | total amount of PCSK9, dependence on the concentration added (PCSK9 [1]) | amount of PCSK9 in the cells with respect to the amount of PCSK9 in the cells of the control (PCSK9 [1]; 10 micro gram/mL) [%] | amount of PCSK9 in the culture medium and the cells, as compared with the control (PCSK9 [1]) | amount of PCSK9 in the blood (PCSK9 [2]; HFD-fed male and female mice) | amount of triglyceride in the liver and the blood (PCSK9 [2]; HFD-fed mice)
1 | CC(=O)OCC1(C)[C@@H](OC(C)=O)CC[C@]2(C)[C@H]3[C@@H](O)c4c(cc(-c5cccnc5)oc4=O)O[C@]3(C)[C@@H](OC(=O)c3ccc(C#N)cc3)C[C@@H]12 (stereo partly shown) [PRD017, 7-p-cyanobenzoyl-7-deacetyl pyripyropene A] | 40.3 | 28.3 | 11.7 | 80.3 | 44 | 46 | 29.4 | 22.0 | 6.6 | 58 | decreased depending on the concentration added |  |  |  | 
2 | 7-O-p-cyanobenzoyl-1,11-di(O-isobutyryl)-1,7,11-trideacetyl pyripyropene A [PRD056] | 27.2 | 21.1 | 8.1 | 56.4 | 30 | 44.8 | 34.5 | 15.2 | 6.4 | 56.1 | decreased depending on the concentration added |  |  |  | 
3 | CC(C)c1c(C(=O)Nc2ccccc2)c(-c2ccccc2)c(-c2ccc(F)cc2)n1CC[C@@H](O)C[C@@H](O)CC(=O)O [Atr, atorvastatin, reference compound] | 49.4 | 129.3 | 90.0 | 268.7 | 273.8 | 682.5 | 63.2 | 136.1 | 97.6 | 296.8 |  | 175.6 | rather increased |  | 
4 | CC(=O)OC[C@@]1(C)[C@@H]2C[C@H](OC(C)=O)[C@@]3(C)Oc4cc(-c5cccnc5)oc(=O)c4[C@H](O)[C@@H]3[C@@]2(C)CC[C@@H]1OC(C)=O [PPPA, pyripyropene A, reference compound] | 35.7 | 45.2 | 35.7 | 116.6 |  |  | 38.4 | 31.7 | 19.7 | 89.8 |  |  | no significant difference |  | 
5 | Cc1ccccc1[C@@H]1OCC2(C)C3C[C@H](OC(=O)c4ccc(C#N)cc4)[C@@]4(C)Oc5cc(-c6cccnc6)oc(=O)c5[C@H](O)C4[C@@]3(C)CC[C@@H]2O1 (stereo partly shown) [PRD125, 1,11-O-o-methylbenzylidene-7-O-p-cyanobenzoyl-1,7,11-trideacetyl pyripyropene A] | 20.7 | 23.0 | 12.8 | 56.5 | 41.6 |  | 23.6 | 20.7 | 10.4 | 54.7 | decreased depending on the concentration added |  |  | significantly reduced | markedly reduced
